Source: ChEMBL document CHEMBL5506032, “Discovery of 2,6-Naphthyridine Analogues as Selective FGFR4 Inhibitors for Hepatocellular Carcinoma” (J Med Chem, 2024)
Calls of active or inactive are those of the source. The calls are words filed in the database; no cut-off is given here.

Legend:
Huh-7 [1] = test: Antiproliferative activity against FGFR4 overexpressing human Huh-7 cells assessed as inhibition of cell growth by SRB assay
[2] = molecular target: Fibroblast growth factor receptor 3 (Homo sapiens, UniProt P22607); test: Inhibition of FGFR3 (unknown origin) by Z'-LYTE kinase assay
[3] = Antiproliferative activity against FGF19 amplified human JHH7 cells assessed as inhibition of cell growth by SRB assay
[4] = molecular target: T1, Fibroblast growth factor receptor 1 (Homo sapiens, UniProt P11362); test: Inhibition of FGFR1 (unknown origin) by Z'-LYTE kinase assay
Target sequence in this assay (P11362 whole entry): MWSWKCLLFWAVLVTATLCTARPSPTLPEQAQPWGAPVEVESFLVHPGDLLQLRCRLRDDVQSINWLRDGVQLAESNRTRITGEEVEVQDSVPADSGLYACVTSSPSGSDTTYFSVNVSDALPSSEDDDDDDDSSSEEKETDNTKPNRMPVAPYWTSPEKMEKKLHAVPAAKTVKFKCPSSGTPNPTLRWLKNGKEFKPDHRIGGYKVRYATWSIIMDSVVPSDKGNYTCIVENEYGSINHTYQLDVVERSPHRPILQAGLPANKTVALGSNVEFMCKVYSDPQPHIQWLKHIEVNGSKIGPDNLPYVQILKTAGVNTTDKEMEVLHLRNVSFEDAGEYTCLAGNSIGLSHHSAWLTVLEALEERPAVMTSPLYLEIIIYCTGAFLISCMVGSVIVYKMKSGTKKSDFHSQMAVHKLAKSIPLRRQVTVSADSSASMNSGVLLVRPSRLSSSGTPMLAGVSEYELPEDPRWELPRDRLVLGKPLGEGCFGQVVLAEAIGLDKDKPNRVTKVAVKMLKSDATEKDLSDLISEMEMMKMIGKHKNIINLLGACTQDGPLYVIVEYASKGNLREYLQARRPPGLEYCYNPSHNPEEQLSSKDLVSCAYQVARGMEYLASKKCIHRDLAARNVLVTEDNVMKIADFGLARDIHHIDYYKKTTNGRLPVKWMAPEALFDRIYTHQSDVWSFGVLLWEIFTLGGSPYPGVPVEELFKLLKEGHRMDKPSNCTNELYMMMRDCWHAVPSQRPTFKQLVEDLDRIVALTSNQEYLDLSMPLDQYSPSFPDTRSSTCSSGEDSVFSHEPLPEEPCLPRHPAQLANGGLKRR

[5] = Toxicity in female BALB/c nude mouse xenografted with human Huh-7 cells assessed as clinical signs at 100 mg/kg, po administered twice daily for 15 days; type: organism-based; conditions: in vivo, 360 h, time 15 day
[6] = molecular target: Fibroblast growth factor receptor 4 (Homo sapiens, UniProt P22455); test: Inhibition of FGFR4 (unknown origin) by Z'-LYTE kinase assay
Hep 3B2 [7] = test: Antiproliferative activity against FGF19 amplified human Hep3B cells assessed as inhibition of cell growth by SRB assay
[8] = molecular target: T2, Fibroblast growth factor receptor 2 (Homo sapiens, UniProt P21802); test: Inhibition of FGFR2 (unknown origin) by Z'-LYTE kinase assay
Target sequence in this assay (P21802 whole entry): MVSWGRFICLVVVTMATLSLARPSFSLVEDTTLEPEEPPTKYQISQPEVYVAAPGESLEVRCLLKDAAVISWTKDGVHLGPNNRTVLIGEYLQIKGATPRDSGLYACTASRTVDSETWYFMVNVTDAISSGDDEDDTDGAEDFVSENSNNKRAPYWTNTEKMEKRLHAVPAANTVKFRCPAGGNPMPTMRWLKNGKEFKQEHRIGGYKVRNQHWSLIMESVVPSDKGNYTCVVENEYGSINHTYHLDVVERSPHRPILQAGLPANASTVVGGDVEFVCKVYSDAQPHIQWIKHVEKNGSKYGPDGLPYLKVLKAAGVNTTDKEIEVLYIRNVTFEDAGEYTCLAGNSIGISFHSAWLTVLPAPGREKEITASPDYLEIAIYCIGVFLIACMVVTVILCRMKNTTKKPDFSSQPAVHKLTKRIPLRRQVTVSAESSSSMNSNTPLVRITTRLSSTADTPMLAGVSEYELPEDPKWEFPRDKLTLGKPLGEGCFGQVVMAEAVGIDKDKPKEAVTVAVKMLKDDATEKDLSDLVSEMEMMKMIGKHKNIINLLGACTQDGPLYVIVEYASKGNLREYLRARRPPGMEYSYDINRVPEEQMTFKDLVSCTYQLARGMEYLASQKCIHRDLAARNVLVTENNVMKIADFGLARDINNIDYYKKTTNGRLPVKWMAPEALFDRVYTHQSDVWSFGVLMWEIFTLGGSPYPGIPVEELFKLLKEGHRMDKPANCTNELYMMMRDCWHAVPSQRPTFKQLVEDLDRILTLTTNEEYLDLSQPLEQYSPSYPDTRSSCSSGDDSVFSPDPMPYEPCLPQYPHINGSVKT

[9] = Toxicity in female BALB/c nude mouse xenografted with human Huh-7 cells assessed as effect on body weight at 100 mg/kg, po administered twice daily for 15 days; type: organism-based; conditions: in vivo, 360 h, time 15 day
Huh-7 [10] = test: Antitumor activity against human Huh-7 cells xenografted in female BALB/c nude mouse assessed as reduction in tumor volume at 100 mg/kg, po administered twice daily for 15 days; type: functional, organism-based; conditions: time 15.0 day
[11] = Antitumor activity against human Hep 3B-Luc cells xenografted in female BALB/c nude mouse assessed as survival at 100 mg/kg, po administered once daily for 7 weeks and measured after 119 days relative to control; type: functional; conditions: 2856 h, time 119 day
Hep 3B2 [12] = test: Antitumor activity against human Hep3B cells xenografted in female BALB/c nude ectopic mouse assessed as reduction in tumor volume at 100 mg/kg, po administered twice daily for 15 days; type: functional, organism-based; conditions: time 15.0 day
[13] = Half-life in ICR mouse at 200 mg/kg, po measured after 48 hrs by LC-MS/MS analysis; type: ADME, organism-based; conditions: in vivo
Huh-7 [14] = test: Growth inhibition of FGF19 amplified and FGFR4 overexpressing human Huh-7 cells by SRB assay; type: functional
Hep 3B-Luc [15] = test: Antitumor activity against human Hep 3B-Luc cells xenografted in female BALB/c nude mouse assessed as reduction in liver tumor volume at 100 mg/kg, po administered once daily for 7 weeks and measured after 119 days by bioluminescence imaging; type: functional, organism-based; conditions: time 119.0 day
[16] = Oral bioavailability in ICR mouse at 200 mg/kg measured after 48 hrs by LC-MS/MS analysis; type: ADME, organism-based; conditions: in vivo
[17] = Half-life in ICR mouse at 100 mg/kg, po measured after 24 hrs by LC-MS/MS analysis; type: ADME, organism-based; conditions: in vivo
[18] = Cmax in ICR mouse at 5 mg/kg, iv by LC-MS/MS analysis; type: ADME, organism-based; conditions: in vivo
[19] = Half-life in ICR mouse at 5 mg/kg, iv by LC-MS/MS analysis; type: ADME, organism-based; conditions: in vivo
[20] = Growth inhibition of human HS27 cells by SRB assay; type: toxicity, cell-based
[21] = Growth inhibition of FGF19 amplified and FGFR4 overexpressing human JHH7 cells by SRB assay; type: functional
[22] = AUC (0 to 24 hrs) in ICR mouse at 5 mg/kg, iv by LC-MS/MS analysis; type: ADME, organism-based; conditions: in vivo
[23] = Tmax in ICR mouse at 50 mg/kg, po measured after 24 hrs by LC-MS/MS analysis; type: ADME, organism-based; conditions: in vivo
Hep 3B2 [24] = test: Growth inhibition of FGF19 amplified and FGFR4 overexpressing human Hep3B cells by SRB assay; type: functional
HepG2 = test: Growth inhibition of human HepG2 cells by SRB assay; type: functional
SNU-387 = test: Growth inhibition of human SNU-387 cells by SRB assay; type: functional
[25] = AUC (0 to 24 hrs) in ICR mouse at 200 mg/kg, po measured after 48 hrs by LC-MS/MS analysis; type: ADME, organism-based; conditions: in vivo
[26] = Tmax in ICR mouse at 200 mg/kg, po measured after 48 hrs by LC-MS/MS analysis; type: ADME, organism-based; conditions: in vivo
[27] = AUC (0 to 24 hrs) in ICR mouse at 50 mg/kg, po measured after 24 hrs by LC-MS/MS analysis; type: ADME, organism-based; conditions: in vivo
PLC-PRF-5 = test: Growth inhibition of human PLCPRF5 cells by SRB assay; type: functional
[28] = molecular target: T2, Fibroblast growth factor receptor 2; test: Inhibition of FGFR2 (unknown origin) at 1 uM relative to control
Target sequence in this assay (P21802 22-821 limits assumed): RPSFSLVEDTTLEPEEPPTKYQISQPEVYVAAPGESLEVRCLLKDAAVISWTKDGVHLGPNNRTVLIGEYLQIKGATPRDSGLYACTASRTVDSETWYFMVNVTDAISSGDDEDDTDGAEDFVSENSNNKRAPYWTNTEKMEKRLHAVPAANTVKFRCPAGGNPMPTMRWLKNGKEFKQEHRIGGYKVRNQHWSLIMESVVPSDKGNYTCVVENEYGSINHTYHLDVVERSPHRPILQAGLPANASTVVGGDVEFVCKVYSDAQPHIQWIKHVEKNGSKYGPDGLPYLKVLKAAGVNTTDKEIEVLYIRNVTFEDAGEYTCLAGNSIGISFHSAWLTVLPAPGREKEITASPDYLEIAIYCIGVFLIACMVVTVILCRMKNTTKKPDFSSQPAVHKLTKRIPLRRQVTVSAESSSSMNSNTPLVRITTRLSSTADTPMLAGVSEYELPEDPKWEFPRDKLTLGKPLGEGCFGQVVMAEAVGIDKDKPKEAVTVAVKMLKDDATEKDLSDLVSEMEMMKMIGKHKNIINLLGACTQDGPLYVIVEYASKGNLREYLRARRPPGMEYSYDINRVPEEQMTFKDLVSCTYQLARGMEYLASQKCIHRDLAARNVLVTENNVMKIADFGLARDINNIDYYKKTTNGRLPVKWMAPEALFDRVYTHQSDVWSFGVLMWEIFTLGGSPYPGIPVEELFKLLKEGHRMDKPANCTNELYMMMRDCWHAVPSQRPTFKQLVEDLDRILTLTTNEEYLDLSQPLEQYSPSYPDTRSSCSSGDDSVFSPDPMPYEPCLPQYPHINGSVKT

[29] = Oral bioavailability in ICR mouse at 100 mg/kg measured after 24 hrs by LC-MS/MS analysis; type: ADME, organism-based; conditions: in vivo
[30] = molecular target: T1, Fibroblast growth factor receptor 1; test: Inhibition of FGFR1 (unknown origin) at 1 uM relative to control
Target sequence in this assay (P11362 22-822 limits assumed): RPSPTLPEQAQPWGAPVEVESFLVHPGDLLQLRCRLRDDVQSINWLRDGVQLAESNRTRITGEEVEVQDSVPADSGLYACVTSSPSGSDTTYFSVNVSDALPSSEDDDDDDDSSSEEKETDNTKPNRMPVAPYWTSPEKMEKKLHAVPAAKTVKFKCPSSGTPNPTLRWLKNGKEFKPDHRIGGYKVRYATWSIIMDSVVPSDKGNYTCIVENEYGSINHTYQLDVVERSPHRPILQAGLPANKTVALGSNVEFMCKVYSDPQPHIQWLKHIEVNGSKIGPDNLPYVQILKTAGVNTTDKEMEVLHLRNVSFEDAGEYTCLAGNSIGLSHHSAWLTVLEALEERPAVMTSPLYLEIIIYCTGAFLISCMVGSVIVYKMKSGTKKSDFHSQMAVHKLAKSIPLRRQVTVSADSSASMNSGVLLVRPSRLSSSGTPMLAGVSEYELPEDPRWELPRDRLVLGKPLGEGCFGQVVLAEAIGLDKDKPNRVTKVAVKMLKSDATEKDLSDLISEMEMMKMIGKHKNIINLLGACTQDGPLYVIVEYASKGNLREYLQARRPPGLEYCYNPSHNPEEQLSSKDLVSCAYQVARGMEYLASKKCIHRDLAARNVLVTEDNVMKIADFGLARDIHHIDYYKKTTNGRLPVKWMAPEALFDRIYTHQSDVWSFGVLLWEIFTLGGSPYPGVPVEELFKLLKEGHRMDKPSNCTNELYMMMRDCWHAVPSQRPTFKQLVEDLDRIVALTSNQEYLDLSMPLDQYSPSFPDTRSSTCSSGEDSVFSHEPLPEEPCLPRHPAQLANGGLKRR

[31] = AUC (0 to 24 hrs) in ICR mouse at 100 mg/kg, po measured after 24 hrs by LC-MS/MS analysis; type: ADME, organism-based; conditions: in vivo
[32] = Half-life in ICR mouse at 50 mg/kg, po measured after 24 hrs by LC-MS/MS analysis; type: ADME, organism-based; conditions: in vivo
[33] = Cmax in ICR mouse at 200 mg/kg, po measured after 48 hrs by LC-MS/MS analysis; type: ADME, organism-based; conditions: in vivo
[34] = Cmax in ICR mouse at 50 mg/kg, po measured after 24 hrs by LC-MS/MS analysis; type: ADME, organism-based; conditions: in vivo
Hep 3B-Luc [35] = test: Antitumor activity against human Hep 3B-Luc cells xenografted in female BALB/c nude mouse assessed as reduction in liver tumor volume at 100 mg/kg, po administered once daily for 7 weeks and measured within 35 days by bioluminescence imaging; type: functional, organism-based; conditions: time <= 35.0 day
[36] = Oral bioavailability in ICR mouse at 50 mg/kg measured after 24 hrs by LC-MS/MS analysis; type: ADME, organism-based; conditions: in vivo
[37] = Tmax in ICR mouse at 100 mg/kg, po measured after 24 hrs by LC-MS/MS analysis; type: ADME, organism-based; conditions: in vivo
[38] = Cmax in ICR mouse at 100 mg/kg, po measured after 24 hrs by LC-MS/MS analysis; type: ADME, organism-based; conditions: in vivo
RT-112 = test: Growth inhibition of FGFR3 overexpressing human RT-112 cells by SRB assay; type: functional

Chain of Fibroblast growth factor receptor 3 (P22607 whole entry): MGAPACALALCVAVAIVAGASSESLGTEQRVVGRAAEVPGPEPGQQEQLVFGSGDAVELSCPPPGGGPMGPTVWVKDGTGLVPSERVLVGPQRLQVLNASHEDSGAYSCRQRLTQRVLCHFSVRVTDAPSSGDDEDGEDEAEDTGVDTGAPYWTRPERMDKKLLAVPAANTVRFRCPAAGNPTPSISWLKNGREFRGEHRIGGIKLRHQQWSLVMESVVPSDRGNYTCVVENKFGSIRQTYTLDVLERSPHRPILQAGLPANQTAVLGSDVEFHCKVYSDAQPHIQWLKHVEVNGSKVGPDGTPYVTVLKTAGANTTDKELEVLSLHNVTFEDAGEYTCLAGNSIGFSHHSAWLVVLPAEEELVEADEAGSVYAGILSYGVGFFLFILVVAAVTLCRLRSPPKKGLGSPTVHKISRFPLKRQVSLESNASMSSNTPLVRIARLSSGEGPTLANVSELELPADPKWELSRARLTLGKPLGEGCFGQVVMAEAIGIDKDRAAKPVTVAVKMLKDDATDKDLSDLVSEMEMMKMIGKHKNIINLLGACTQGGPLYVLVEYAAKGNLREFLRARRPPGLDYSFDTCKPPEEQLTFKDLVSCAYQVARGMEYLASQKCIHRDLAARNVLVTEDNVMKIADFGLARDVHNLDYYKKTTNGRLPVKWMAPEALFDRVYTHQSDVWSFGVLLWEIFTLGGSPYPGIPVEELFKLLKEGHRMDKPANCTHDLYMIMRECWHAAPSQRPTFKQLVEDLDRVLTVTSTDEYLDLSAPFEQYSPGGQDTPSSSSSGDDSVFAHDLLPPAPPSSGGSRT
Chain of Fibroblast growth factor receptor 4 (P22455 whole entry): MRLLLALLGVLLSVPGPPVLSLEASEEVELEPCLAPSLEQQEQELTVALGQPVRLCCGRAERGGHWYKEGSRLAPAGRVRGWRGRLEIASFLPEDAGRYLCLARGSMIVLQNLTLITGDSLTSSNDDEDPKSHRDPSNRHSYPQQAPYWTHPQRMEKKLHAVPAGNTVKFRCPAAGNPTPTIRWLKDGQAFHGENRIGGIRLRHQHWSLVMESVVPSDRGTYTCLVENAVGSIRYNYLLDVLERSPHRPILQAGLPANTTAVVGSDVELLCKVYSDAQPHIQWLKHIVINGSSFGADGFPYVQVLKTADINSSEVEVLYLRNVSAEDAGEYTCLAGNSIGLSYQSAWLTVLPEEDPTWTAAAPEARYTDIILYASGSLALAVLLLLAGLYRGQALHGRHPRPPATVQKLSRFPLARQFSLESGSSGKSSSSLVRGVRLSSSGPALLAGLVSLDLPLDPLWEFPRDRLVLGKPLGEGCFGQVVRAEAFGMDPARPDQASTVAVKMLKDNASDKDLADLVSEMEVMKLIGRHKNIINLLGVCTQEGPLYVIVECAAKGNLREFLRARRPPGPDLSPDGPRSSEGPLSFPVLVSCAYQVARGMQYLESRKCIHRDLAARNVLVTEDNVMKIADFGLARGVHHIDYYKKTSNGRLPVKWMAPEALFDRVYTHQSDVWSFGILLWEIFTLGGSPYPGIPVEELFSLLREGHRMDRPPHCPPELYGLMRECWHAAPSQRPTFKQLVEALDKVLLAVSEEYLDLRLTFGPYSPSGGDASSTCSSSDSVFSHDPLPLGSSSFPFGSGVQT

For `C=CC(=O)Nc1ccccc1Nc1cc2c(CC)nc(-c3c(Cl)c(OC)cc(OC)c3Cl)cc2cn1`, the IC50 (Huh-7 [1]) was 36 nM.

With `C=CC(=O)Nc1ccccc1Nc1cc2c(-c3ccc[nH]3)nc(-c3c(Cl)c(OC)cc(OC)c3Cl)cc2cn1` the IC50 (Huh-7 [1]) was 61 nM.

`C=CC(=O)N[C@H]1CCOC[C@H]1Nc1ncc2cc(-c3c(Cl)c(OC)cc(OC)c3Cl)ccc2n1` [FISOGATINIB] showed an IC50 [2] greater than 10000 nM, an IC50 (Huh-7 [1]) of 81 nM and an IC50 [3] of 161 nM. For the same compound, the IC50 [4] was 1840 nM, the Activity [5] was “Non-Toxic” and the IC50 [6] was 53 nM. The IC50 (Hep 3B2 [7]) was 122 nM, the IC50 [8] was 2500 nM and the Activity [9] was “Non-Toxic”. The Activity (Huh-7 [10]) was “Active”.

In the case of `C=CC(=O)Nc1cc2c(cc1Nc1cc3cnc(-c4c(Cl)c(OC)cc(OC)c4Cl)cc3cn1)CCC2`, the IC50 (Huh-7 [1]) is reported as 113 nM.

`C=CC(=O)Nc1ccc(C)cc1Nc1cc2cnc(-c3c(Cl)c(OC)cc(OC)c3Cl)cc2cn1` showed an IC50 (Huh-7 [1]) of 37 nM.

`C=CC(=O)Nc1ccccc1Nc1cc2c(-c3ccccc3)nc(-c3c(Cl)c(OC)cc(OC)c3Cl)cc2cn1` gave an IC50 (Huh-7 [1]) of 69 nM.

For `C=CC(=O)Nc1ccc(N2CCN(CC)CC2)c(F)c1Nc1cc2cnc(-c3c(F)c(OC)cc(OC)c3F)cc2cn1`, the IC50 (Huh-7 [1]) was 137 nM.

`C=CC(=O)Nc1ccccc1Nc1cc2cnc(-c3c(F)c(OC)cc(OC)c3F)cc2cn1` showed an IC50 (Huh-7 [1]) of 25 nM.

`C=CC(=O)Nc1ccccc1Nc1cc2c(-c3ccco3)nc(-c3c(Cl)c(OC)cc(OC)c3Cl)cc2cn1` showed an IC50 (Huh-7 [1]) of 110 nM.

Work on `C=CC(=O)Nc1ccccc1Nc1cc2c(-c3cnn(C)c3)nc(-c3c(Cl)c(OC)cc(OC)c3Cl)cc2cn1` yielded an IC50 (Huh-7 [1]) of 50 nM.

Work on `C=CC(=O)Nc1cccc(F)c1Nc1cc2cnc(-c3c(Cl)c(OC)cc(OC)c3Cl)cc2cn1` yielded an IC50 (Huh-7 [1]) of 220 nM.

For `C=CC(=O)Nc1ccccc1Nc1cc2c(-c3cccnc3)nc(-c3c(Cl)c(OC)cc(OC)c3Cl)cc2cn1`, the IC50 (Huh-7 [1]) was 68 nM.

Work on `C=CC(=O)Nc1ccccc1Nc1cc2c(C3CC3)nc(-c3c(Cl)c(OC)cc(OC)c3Cl)cc2cn1` yielded an IC50 (Huh-7 [1]) of 67 nM.

`C=CC(=O)Nc1cccc(F)c1Nc1cc2cnc(-c3c(F)c(OC)cc(OC)c3F)cc2cn1` gave an IC50 (Huh-7 [1]) of 140 nM.

For `C=CC(=O)Nc1cccc(C)c1Nc1cc2cnc(-c3c(Cl)c(OC)cc(OC)c3Cl)cc2cn1`, the IC50 (Huh-7 [1]) was 212 nM.

Compound `C=CC(=O)Nc1cccc(C)c1Nc1ncc2cc(-c3c(Cl)c(OC)cc(OC)c3Cl)ccc2n1` has an IC50 (Huh-7 [1]) of 191 nM.

For `C=CC(=O)Nc1cc(C)ccc1Nc1cc2cnc(-c3c(Cl)c(OC)cc(OC)c3Cl)cc2cn1`, the IC50 (Huh-7 [1]) was 125 nM.

With `C=CC(=O)Nc1ccccc1Nc1cc2cnc(-c3c(Cl)c(OC)cc(OC)c3Cl)cc2cn1` the IC50 [2] was 4630 nM, the IC50 (Huh-7 [1]) was 23 nM and the IC50 [4] was 506 nM. For the same compound, the IC50 [8] was 281 nM.

`C=CC(=O)Nc1ccccc1Nc1cc2c(C)nc(-c3c(Cl)c(OC)cc(OC)c3Cl)cc2cn1` gave an IC50 [2] greater than 10000 nM, an IC50 (Huh-7 [1]) of 19 nM and a survival at 100 mg/kg [11] greater than 90%. For the same compound, the Activity (Hep 3B2 [12]) was “Active”, the half-life [13] was 8.6 h and the IC50 [3] was 33 nM. The GI50 (Huh-7 [14]) was 16 nM, the IC50 [4] was 1260 nM and the Activity (Hep 3B-Luc [15]) was “Active”. It also gave a bioavailability [16] of 53.2%, a half-life [17] of 3.9 h and a Cmax [18] of 8140 ng/mL. The half-life [19] was 1.7 h, the Activity [5] was “Non-Toxic” and the GI50 [20] was 913 nM. The GI50 [21] was 16 nM, the AUC(0-t) [22] was 4810 ng·h/mL and the Tmax [23] was 1 h. For the same compound, the GI50 (Hep 3B2 [24]) was 16 nM, the GI50 (HepG2) was 335 nM and the GI50 (SNU-387) was 251 nM. The AUC(0-t) at 48 h [25] was 102000 ng·h/mL, the Tmax [26] was 1 h and the AUC(0-t) at 24 h [27] was 27300 ng·h/mL. For the same compound, the GI50 (PLC-PRF-5) was 598 nM, the inhibition [28] was greater than 85% and the bioavailability [29] was 61.9%. For the same compound, the inhibition [30] was greater than 85%, the AUC(0-t) at 24 h [31] was 59500 ng·h/mL and the half-life [32] was 4.4 h. It also gave a Cmax [33] of 40700 ng/mL, an IC50 (Hep 3B2 [7]) of 16 nM and a Cmax [34] of 11200 ng/mL. The Activity (Hep 3B-Luc [35]) was “Active”, the bioavailability [36] was 56.8% and the Tmax [37] was 0.5 h. It also gave a Cmax [38] of 24600 ng/mL, a GI50 (RT-112) of 151 nM and an IC50 [8] of 3270 nM. For the same compound, the Activity [9] was “Non-Toxic” and the Activity (Huh-7 [10]) was “Active”.

`C=CC(=O)Nc1cc(N2CCOCC2)ccc1Nc1cc2cnc(-c3c(Cl)c(OC)cc(OC)c3Cl)cc2cn1` showed an IC50 (Huh-7 [1]) of 80 nM.
